Data taken from patent US8044070B2, “Heteroaryloxy nitrogenous saturated heterocyclic derivative” (MSD K.K., priority 2003, dated 2011).
Read-outs that look alike come from different tables or passages of the source.

Experiments:
histamine-3 receptor [1] = biological target: T1, histamine-3 receptor (Homo sapiens, UniProt Q9Y5N1); assay: Histamine analogue-binding inhibition test ([35S]GTPγS binding in presence of R-methylhistamine, SPA); type: biochemical; conditions: 20 nM R-methylhistamine, 25° C., 3 hours; read-out: IC50 (nM) to specific [35S]GTPγS binding
T1 construct: expressed in transfected cells; host or cells: HEK293 and CHO-K1 (membrane specimen)
Text: (§1) A cDNA sequence coding for a human histamine-3 receptor [see International Patent Application WO00/39164) was cloned with expression vectors pCR2.1, pEF1x (by Invitrogen) and pCI-neo (by Promega). The resulting expression vector was transfected into host cells, HEK293 and CHO-K1 (American Type Culture Collection), according to a cationic lipid process [see Proceedings of the National Academy of Sciences of the United States of America, Vol., 84, p. 7413 (1987)] to obtain histamine-3 receptor expression cells.
A membrane specimen prepared from the cells having expressed a histamine-3 receptor was incubated in an assay buffer (50 mM Tris buffer, 100 mM NaCl, 5 mM MgCl2, pH 7.4) along with a test compound, 20 nM R-methylhistamine (histamine analogue, by Sigma), 10 μM GDP (guanine-nucleotide diphosphate, by Sigma), […] [^35S] GTPγS (guanine-nucleotide triphosphate analogue, by Amersham) and SPA resin (wheatgerm agglutinin SPA beads, by Amersham) therein on a 96-well optiplate (by Packard) at 25° C. for 3 hours and then centrifuged at 3,000 rpm, and its activity was counted with Topcount (by Packard). The non-specific binding was determined in the presence of 10 μM GTPγS (by Sigma), and the 50% inhibitory concentration (IC50) of the test compound to specific N[^35S] GTPγS binding was calculated [see British Journal of Pharmacology, Vol. 135, p. 383 (2002)].

histamine-3 receptor [2] = biological target: T1, histamine-3 receptor; assay: Histamine analogue-binding inhibition test ([3H]N-α-methylhistamine binding to membrane specimen); conditions: membrane of histamine-3 receptor expressing cells, 25° C., 2 hours; read-out: 50% inhibitory concentration (IC50) to specific N-α-methylhistamine binding
Text: as §1
A membrane specimen prepared from the cells having expressed a histamine-3 receptor was incubated in an assay buffer (50 mM Tris buffer, pH 7.4) along with a test compound and 20,000 cpm of [^3H]-α-methylhistamine (by NEN) therein at 25° C. for 2 hours, and then filtered through a glass filter GF/C. This was washed with 50 mM Tris buffer (ph 7.4), and the radioactivity on the glass filter was measured. The non-specific binding was determined in the presence of 10 μM thioperamide (by SIGAM), and the 50% inhibitory concentration (IC50) of the test compound to specific N-α-methylhistamine binding was calculated [see Molecular Pharmacology, Vol. 55, p. 1101 (1999)].

[3] = Test for internal kinetics; type: in vivo, rat; conditions: SD male rats, oral or intravenous administration
Protocol: A test compound was orally or intravenously administered to SD male rats (7 to 10 weeks-age, 200 to 400 g) kept away from eating and drinking overnight, and using a heparinization capillary within a predetermined period of time, about 100 μl of the blood was collected from them via their tail vein. The blood was centrifuged (4° C., 6000 rpm, 10 minutes) to collect its plasma. Ethanol (including an internal standard substance) was added to the plasma in an amount of 3 times that of the plasma, and stirred, and left statically at −20° C. for 20 minutes, and then this was centrifuged (4° C., 10,000 rpm, 10 minutes). The supernatant was analyzed through LC/MS/MS, and the plasma concentration of the compound was quantified according to a relative calibration curve method.

[4] = Brain/cerebrospinal fluid migration test; type: in vivo, rat; conditions: SD male rats, 2 hours after oral administration (10 mg/kg); for concentration at 2 h: rat
Text: A test compound was orally or intravenously administered to SD male rats (7 to 10 weeks-age, 200 to 400 g), and while anesthetized with ether for a predetermined period of time, the whole blood was collected from the abdominal aorta of the rats, using a heparin-processed syringe. Next, the brain skin was cut opened and a 30 G needle for dental use was pierced between the cervical vertebrae and inserted into the subarachnoid cavity. Through the tube connected with the dental 30 G needle, from 50 to 100 μl of the cerebrospinal fluid was collected into a 1-ml syringe, and then the brain was taken out. The blood sample was centrifuged (4° C., 6000 rpm, 10 minutes), and the resulting plasma was stirred with ethanol (including an internal standard substance) added thereto in an amount of 3 times the plasma. 2 ml of water was added to the brain sample and homogenized, and a part of the resulting mixture was stirred with ethanol (including an internal standard substance) added thereto in an amount of 3 times the mixture. These samples were kept at −20° C. for 20 minutes, and then centrifuged (4° C., 12,000 g, 10 minutes), and the resulting supernatant was analyzed through LC/MS/MS. According to a relative calibration curve method, the concentration of the test compound in the plasma, the brain and the cerebrospinal fluid was quantified.

T1 sequence (Q9Y5N1 whole entry): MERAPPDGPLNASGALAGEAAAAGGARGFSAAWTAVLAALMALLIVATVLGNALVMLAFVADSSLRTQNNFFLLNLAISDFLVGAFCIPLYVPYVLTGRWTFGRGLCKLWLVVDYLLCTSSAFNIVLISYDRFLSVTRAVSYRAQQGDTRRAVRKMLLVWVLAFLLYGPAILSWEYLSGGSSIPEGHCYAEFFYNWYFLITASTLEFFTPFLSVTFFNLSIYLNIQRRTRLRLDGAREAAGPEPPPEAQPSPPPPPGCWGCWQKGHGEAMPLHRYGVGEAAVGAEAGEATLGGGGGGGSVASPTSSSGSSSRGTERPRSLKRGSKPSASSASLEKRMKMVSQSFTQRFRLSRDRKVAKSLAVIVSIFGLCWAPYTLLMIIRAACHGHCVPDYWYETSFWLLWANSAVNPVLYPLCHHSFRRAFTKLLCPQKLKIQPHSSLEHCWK

SMILES	IC50 (histamine-3 receptor [1]) [nM]	also measured
FC(F)(F)c1ccc(-c2cnc(OC3CCN(C4CCCC4)CC3)nc2)cc1 [Example 23, 2-(1-cyclopentylpiperidin-4-yloxy)-5-(4-trifluoromethylphenyl)pyrimidine]	1.4	–
O=C(c1ccc(-c2cnc(OC3CCN(C4CCCC4)CC3)nc2)cc1)N1CCCC1 [Example 11, 2-(1-cyclopentylpiperidin-4-yloxy)-5-{4-(pyrrolidin-1-ylcarbonyl)phenyl}pyrimidine]	1.2	–
CC(C)N1CCC(Oc2ccc(-c3ccc(=O)n(C)c3)cn2)CC1 [Example 68, 2-(1-isopropylpiperidin-4-yloxy)-5-{1-methyl-1H-pyridin-2-on-5-yl}pyridine]	1.4	–
CS(=O)(=O)c1ccc(-c2cnc(OC3CCN(C4CCCC4)CC3)nc2)cc1 [Example 37, 2-(1-cyclopentylpiperidin-4-yloxy)-5-{4-(methylsulfonyl)phenyl}pyrimidine]	1.3	–
Cn1cc(-c2ccc(OC3CCN(C4CCC4)CC3)nc2)ccc1=O [Example 65, 2-(1-cyclobutylpiperidin-4-yloxy)-5-{1-methyl-1H-pyridin-2-on-5-yl}pyridine]	0.45	–
c1cn2cnnc2cc1-c1cnc(OC2CCN(C3CCCC3)CC2)nc1 [Example 60, 2-(1-cyclopentylpiperidin-4-yloxy)-5-(1,2,4-triazolo[4,3,a]pyridin-7-yl)pyrimidine]	1.2	–
N#Cc1ccc(-c2cnc(OC3CCN(C4CCCC4)CC3)nc2)cc1 [Example 1, 2-(1-cyclopentylpiperidin-4-yloxy)-5-(4-cyanophenyl)pyrimidine]	1.9	IC50 (histamine-3 receptor [2]): 15 nM; half-value period in blood [3]: 5.3 h; bioavailability ([3]; rat, plasma): 53%; brain concentration [4]: 6.18 nmol/g; concentration at 2 h ([4]; cerebrospinal fluid, read-out: cerebrospinal fluid concentration): 0.128 µM; concentration at 2 h ([4]; plasma, read-out: plasma concentration): 0.54 µM
